Read-outs that look alike come from different tables or passages of the source. No end group written: not given here.
Legend:
[1] = test system: BKS.Cg WT mice; assay: Bioavailability: IPGTT, oral PIN/PLA GLP-1 vs intraperitoneal soluble peptide, serum glucose AUC; format: in vivo
Method: All mice were then injected intraperitoneally with glucose (3 mg/ml in 0.2 ml saline). Blood was collected at time 0 (pre-glucose) and at indicated times post-glucose. Serum glucose levels were determined as described above.

[2] = oral, relative to intravenous administration of GLP-1; cited from earlier work
[3] = biological target: T1, GLP-1 receptor (Homo sapiens, UniProt P43220); settings: cited from earlier work
T1 sequence (P43220 24-463, species assumed): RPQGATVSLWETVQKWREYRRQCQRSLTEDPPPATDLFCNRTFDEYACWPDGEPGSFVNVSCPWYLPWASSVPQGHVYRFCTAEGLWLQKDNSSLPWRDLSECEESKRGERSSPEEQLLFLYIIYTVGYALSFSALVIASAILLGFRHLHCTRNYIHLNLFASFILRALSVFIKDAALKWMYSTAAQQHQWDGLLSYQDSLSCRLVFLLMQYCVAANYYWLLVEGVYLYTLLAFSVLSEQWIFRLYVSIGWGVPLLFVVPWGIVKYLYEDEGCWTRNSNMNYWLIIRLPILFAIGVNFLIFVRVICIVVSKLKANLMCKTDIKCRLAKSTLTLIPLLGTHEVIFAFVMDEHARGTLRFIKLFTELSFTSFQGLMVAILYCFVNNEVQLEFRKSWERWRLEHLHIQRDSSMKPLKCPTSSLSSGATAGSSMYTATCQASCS

[4] = biological target: T1, GLP-1 receptor; settings: cited from earlier work; remark: listed apart in the source
[5] = test system: type 2 diabetic patients; settings: cited from earlier work

Question: Which results are given for GLP-1 (7-36 amide) [Free]?
Answer: AUC 30 ug (serum glucose area under the curve) ([1]; 30 ug GLP-1/mouse, Free = intraperitoneal soluble peptide, Encap = oral PIN/PLA particles): 7515; AUC 90 ug (serum glucose area under the curve) ([1]; 90 ug GLP-1/mouse, Free = intraperitoneal soluble peptide, Encap = oral PIN/PLA particles): 7425; AUC 250 ug (serum glucose area under the curve) ([1]; 250 ug GLP-1/mouse, Free = intraperitoneal soluble peptide, Encap = oral PIN/PLA particles): 6262; effect on blood glucose in IPGTT (in words) ([1]; 250 μg GLP-1, oral particles vs intraperitoneal soluble peptide): superior; mean absolute bioavailability [2]: 4%

Question: Which results are given for “GLP-1(9-36)-NH2 (EGTFTSDVSSYLEGQAAKEFIAWLVKGR-NH2; UniProt P01275 100-127, looked up, fragment)”?
Answer: lower binding affinity compared to the intact peptide [3]: 100 fold; decrease in agonistic activity [4]: > 10000 fold

Question: For “rGLP-1: rGLP-1 given by continuous infusion in a cited study”, which “decrease in fasting serum glucose” value ([5]; 1.25 pmol/kg/min) is on record?
Answer: 22.7 mg/dL

Question: What about the “decrease in fasting serum glucose” value ([5]; 2.5 pmol/kg/min) of the same substance?
Answer: 37.0 mg/dL

Question: What about the “decrease in fasting serum glucose” value ([5]; 5.0 pmol/kg/min) of the same substance?
Answer: 53.9 mg/dL

Question: What about the “decrease in fasting serum glucose” value ([5]; 8.5 pmol/kg/min) of the same substance?
Answer: 76.2 mg/dL
